Assay results taken from patent US20240091359A1, “NOVEL ESR1 DERIVED PEPTIDES AND USES THEREOF FOR NEOANTIGEN THERAPY” (H. LEE MOFFITT CANCER CENTER AND RESEARCH INSTITUTE, INC., priority 2021, published 2024).

System: CD4+ Th1 cells
Assay: ER peptide library screening: IFN-γ ELISA of supernatants from iDC-CD4+ Th1 co-culture after priming with peptide-pulsed DC1
Assay type: cell-based, human
Settings: for donors with significant increase in IFN-γ production / immunogenicity (IFN-γ production): four healthy normal donor samples; for native ER peptide screening result (immunogenic epitope / candidate sequence): cumulative responses from donors tested, native ER library of 117 peptides (FIG. 7); for increase in IFN-γ production: native ER individual peptide screening, second sample (FIG. 6C, 6D); for immunogenicity (IFN-γ production): mutated peptides and native ER peptides side by side (FIG. 9-13, 20)
Text: 176. We then take this peptide library and proceed with the screening process. Briefly, human autologous monocyte fractions from healthy donors and breast cancer patients are pulsed with class II peptides and are rapidly matured to a type-1 polarized dendritic cell (DC1) through the sequential addition of rhGM-CSF, rhIL-4, rhIFN-γ and LPS. Mature-peptide pulsed DC1's are then put in co-culture with autologous naïve T-cells, where these T-cells are presented with peptides via MHC-II molecules and are polarized to a type-1 effector CD4+ cell through DC1 secretion of IL-12. Additionally, IL-2 is added to the coculture to induce the rapid expansion of CD4+ Th1 cells, after 8-10 days of coculture, the now primed CD4+ Th1 cells are re-stimulated with immature dendritic cells presenting the matching class II peptide or an irrelevant class II negative control. Supernatants from the iDC-CD4+ Th1 co-culture are then screened through IFN-γ ELISA to measure Th1-response. An antigen specific response is considered to be significant as approximately a 2-fold increase in IFN-γ production (pg/mL) compared to the control. The final in vitro screening step is then to do a reverse sensitization. Where the primed CD4 T cells are re-stimulated with immature dendritic cells pulsed with the full tumor antigen in question, or the full protein. This step is important to determine if the identified immunogenic epitope can be recognized by T-cells primed to only a small amino acid sequence apart of the much larger protein.
178. The screening process (FIG. 3) of 10-5-1 is repeated on different samples as well to confirm commonalities in increased responses and reproducibility, ensuring that a response was not donor specific to keep track of common increased responses across donors and ultimately identify those reproducibly immunogenic peptides. The screening procedure follows the same experimental steps as mentioned before, and flows through a successive screening strategy, examining pools of 10 peptides, followed by pools of 5-peptides and eventually as individual peptides. This process allows for the rapid identification of the areas in the full protein sequence that may contain immunogenic peptides, rather than screening all peptides individually.
185. From the 11 noted point mutations, we cross matched their locations within the class II sequences of the ER peptide library. From this, each point mutation was represented in three peptide sequences due to the 10-amino acid overlap between adjacent sequences within the library. This overlap helps to account for binding affinity within the MHC II open binding groove (Table 3) 186. From the 11 mutations, a peptide library of 33 peptides (three sequences per mutation) was created (Table 3). As a comparison, we also screened the corresponding native or un-mutated ER sequences side-by-side to see if the mutation induced an increase in Th1 response compared to the native sequence.

Sequence | native ER peptide screening result (immunogenic epitope / candidate sequence) | immunogenicity (IFN-γ production) | other results
FLSSTLKSLEEKDHI [P93, native ER library peptide] | – | – | donors with significant increase in IFN-γ production: two of four donors
LSHIRHMSNKGMEHL [P103, native ER library peptide] | immunogenic | – | native ER peptide screening result (immunogenic epitope / candidate sequence) (listed as 103): candidate sequences; increase in IFN-γ production: almost identical response to 104
QQVPYYLENEPSGYT [P26, native ER library peptide] | immunogenic | – | native ER peptide screening result (immunogenic epitope / candidate sequence) (listed as 26): candidate sequences
KNVVPLYDLLLEMLD [P107, native ER library peptide] | – | not immunogenic | –
LYDLLLEMLDAHRLH [P108, native ER library peptide] | – | not immunogenic | –
IILLNSGVYTFLSST [P91, native ER library peptide] | – | – | donors with significant increase in IFN-γ production: two of four donors
TLHDQVHLLECAWLE [P75, native ER library peptide] | – | not immunogenic | –
HMSNKGMEHLYSMKC [P104, native ER library peptide] | immunogenic | – | native ER peptide screening result (immunogenic epitope / candidate sequence) (listed as 104): candidate sequences
AKAGLTLQQQHQRLA [P99, native ER library peptide] | immunogenic | – | native ER peptide screening result (immunogenic epitope / candidate sequence) (listed as 99): candidate sequences
YSMKCKNVVPLYDLL [P106, native ER library peptide] | – | not immunogenic | –
YLENEPSGYTVREAG [P27, native ER library peptide] | immunogenic | – | native ER peptide screening result (immunogenic epitope / candidate sequence) (listed as 27): candidate sequences; increase in IFN-γ production: approximately 1.4 fold
GFVDLTLHDQVHLLE [P74, native ER library peptide] | – | not immunogenic | –
